Measured values taken from article PMC9516332 (Frontiers in Oncology, 2022).

Experiments:
Assay in all cases: Kinase panel profiling at 1 µmol/L (MSA or IMAP), percentage inhibition
Assay type in all cases: biochemical
[1] = target: panel of 255 wild-type kinases (Homo sapiens, UniProt P19784); conditions: kinase CK2α2/β; 1 µmol/L single concentration; read-out: %-inhibition at 1 µmol/L, CK2α2/β
[2] = target: panel of 255 wild-type kinases (Homo sapiens, UniProt P28482); conditions: kinase Erk2; 1 µmol/L single concentration; read-out: %-inhibition at 1 µmol/L, Erk2
[3] = target: T1, panel of 255 wild-type kinases (Homo sapiens, UniProt P36888); conditions: kinase FLT3; 1 µmol/L single concentration; read-out: %-inhibition at 1 µmol/L, FLT3
T1 sequence (P36888 27-993): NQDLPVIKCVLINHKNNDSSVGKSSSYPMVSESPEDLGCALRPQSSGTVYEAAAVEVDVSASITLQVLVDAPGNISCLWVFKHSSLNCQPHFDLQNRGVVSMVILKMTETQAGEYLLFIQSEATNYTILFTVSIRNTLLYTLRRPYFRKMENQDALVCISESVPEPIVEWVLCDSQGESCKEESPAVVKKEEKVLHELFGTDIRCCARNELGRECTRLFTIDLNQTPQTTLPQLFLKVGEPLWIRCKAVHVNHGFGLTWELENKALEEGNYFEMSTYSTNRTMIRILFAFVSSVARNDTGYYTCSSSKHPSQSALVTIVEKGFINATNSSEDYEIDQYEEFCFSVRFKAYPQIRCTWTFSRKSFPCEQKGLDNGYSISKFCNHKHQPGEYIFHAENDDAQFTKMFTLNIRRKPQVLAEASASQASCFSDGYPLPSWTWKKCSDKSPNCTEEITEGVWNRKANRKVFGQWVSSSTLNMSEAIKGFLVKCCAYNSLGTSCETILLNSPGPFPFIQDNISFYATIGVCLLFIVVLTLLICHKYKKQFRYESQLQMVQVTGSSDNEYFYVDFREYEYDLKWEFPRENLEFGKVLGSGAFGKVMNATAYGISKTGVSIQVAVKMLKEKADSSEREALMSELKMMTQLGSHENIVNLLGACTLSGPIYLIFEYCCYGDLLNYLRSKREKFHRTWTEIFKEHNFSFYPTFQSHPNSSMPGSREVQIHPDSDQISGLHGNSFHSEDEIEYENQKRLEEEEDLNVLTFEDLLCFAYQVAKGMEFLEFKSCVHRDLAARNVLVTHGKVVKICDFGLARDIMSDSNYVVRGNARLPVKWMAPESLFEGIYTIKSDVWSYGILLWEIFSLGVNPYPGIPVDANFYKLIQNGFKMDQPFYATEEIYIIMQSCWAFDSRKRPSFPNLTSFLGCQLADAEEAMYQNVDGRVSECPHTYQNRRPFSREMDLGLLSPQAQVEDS

[4] = target: panel of 255 wild-type kinases (Homo sapiens, UniProt P50750); conditions: CDK9/CycT1 kinase assay; 1 µmol/L single concentration; read-out: %-inhibition CDK9/CycT1
[5] = target: panel of 255 wild-type kinases (Homo sapiens, UniProt P51957); conditions: NEK4; 1 µmol/L single concentration; read-out: %-inhibition, NEK4
[6] = target: panel of 255 wild-type kinases (Homo sapiens, UniProt Q14012); conditions: CaMK1α kinase assay; 1 µmol/L single concentration; read-out: %-inhibition CaMK1α
[7] = target: T2, panel of 255 wild-type kinases (Homo sapiens, UniProt Q96L34); conditions: MARK4; 1 µmol/L single concentration; read-out: %-inhibition, MARK4
T2 sequence (Q96L34 1-752): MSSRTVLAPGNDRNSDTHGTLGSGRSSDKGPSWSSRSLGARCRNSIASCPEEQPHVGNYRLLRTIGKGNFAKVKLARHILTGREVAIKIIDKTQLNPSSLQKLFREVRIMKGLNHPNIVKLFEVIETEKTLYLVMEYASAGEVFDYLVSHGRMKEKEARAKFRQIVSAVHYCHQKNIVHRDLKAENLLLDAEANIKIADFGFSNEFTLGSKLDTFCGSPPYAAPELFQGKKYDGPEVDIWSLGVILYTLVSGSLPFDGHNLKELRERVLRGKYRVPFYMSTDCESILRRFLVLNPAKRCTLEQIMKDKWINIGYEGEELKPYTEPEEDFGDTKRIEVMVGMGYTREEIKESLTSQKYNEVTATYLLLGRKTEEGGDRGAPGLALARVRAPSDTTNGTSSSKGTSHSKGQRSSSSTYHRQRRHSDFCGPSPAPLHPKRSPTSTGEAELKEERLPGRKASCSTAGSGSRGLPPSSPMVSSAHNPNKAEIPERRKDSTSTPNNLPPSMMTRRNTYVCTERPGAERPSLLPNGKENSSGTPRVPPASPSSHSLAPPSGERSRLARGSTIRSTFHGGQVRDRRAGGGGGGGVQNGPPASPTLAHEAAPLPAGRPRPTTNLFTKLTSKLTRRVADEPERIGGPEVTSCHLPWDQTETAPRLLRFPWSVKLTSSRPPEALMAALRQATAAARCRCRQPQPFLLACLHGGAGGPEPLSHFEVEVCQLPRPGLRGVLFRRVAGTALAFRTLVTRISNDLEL

[8] = target: T3, panel of 255 wild-type kinases (Homo sapiens, UniProt Q9H093); conditions: NuaK2; 1 µmol/L single concentration; read-out: %-inhibition, NuaK2
T3 sequence (Q9H093 1-628): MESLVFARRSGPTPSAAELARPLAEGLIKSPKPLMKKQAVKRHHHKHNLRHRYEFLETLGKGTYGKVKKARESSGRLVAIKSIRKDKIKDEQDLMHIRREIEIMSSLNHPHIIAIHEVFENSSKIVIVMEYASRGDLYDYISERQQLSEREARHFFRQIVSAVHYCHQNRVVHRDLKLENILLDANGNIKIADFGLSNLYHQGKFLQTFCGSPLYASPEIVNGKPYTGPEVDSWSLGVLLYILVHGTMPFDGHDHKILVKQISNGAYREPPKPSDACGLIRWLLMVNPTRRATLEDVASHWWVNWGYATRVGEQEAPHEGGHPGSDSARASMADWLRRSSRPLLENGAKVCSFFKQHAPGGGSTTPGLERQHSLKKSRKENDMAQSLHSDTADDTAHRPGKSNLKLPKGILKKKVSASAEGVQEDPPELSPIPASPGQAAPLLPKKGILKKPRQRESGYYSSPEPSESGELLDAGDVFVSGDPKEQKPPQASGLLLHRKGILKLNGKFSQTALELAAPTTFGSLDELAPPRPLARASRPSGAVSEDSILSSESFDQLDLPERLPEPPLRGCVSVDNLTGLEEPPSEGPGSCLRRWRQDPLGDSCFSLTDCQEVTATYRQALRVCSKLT

SMILES	inhibition at 1 µM [1] [%]	inhibition at 1 µM [2] [%]	inhibition at 1 µM [3] [%]	inhibition at 1 µM [4] [%]	inhibition at 1 µM [5] [%]	inhibition at 1 µM [6] [%]	inhibition at 1 µM [7] [%]	inhibition at 1 µM [8] [%]
C[C@H]1Oc2cc(cnc2N)-c2c(nn(C)c2C#N)CN(C)C(=O)c2ccc(F)cc21 [lorlatinib]	-2.41	0.392	13	-2.48	-0.571	1.49	18	30
CCN1C(=O)N(c2c(F)c(OC)cc(OC)c2F)Cc2cnc3[nH]c(CN4CCOCC4)cc3c21 [pemigatinib]	-5	-1.6	8	7	6.33	12	52	1.46
FC(F)(F)c1ccc(CNc2ccc(Cc3c[nH]c4ncc(Cl)cc34)cn2)cn1 [pexidartinib]	0.601	-3.53	55	7	2.69	-13	17	5
CO[C@]1(C(=O)N[C@@H](C)c2ccc(-n3cc(F)cn3)nc2)CC[C@H](c2nc(C)cc(Nc3cc(C)[nH]n3)n2)CC1 [pralsetinib]	4.29	0.23	101	6	2.56	-4.72	-9	75
CCn1c(=O)c(-c2cc(NC(=O)Nc3ccccc3)c(F)cc2Br)cc2cnc(NC)cc21 [ripretinib]	-0.613	-2.43	46	0.112	19	-8	-2.13	1.36
COc1ccc(CN2C3CC2CN(c2ccc(-c4cc(OCC(C)(C)O)cn5ncc(C#N)c45)cn2)C3)cn1 [selpercatinib]	0.638	-4	99	2.54	0.858	-5.55	25	4
Cn1cnc2c(F)c(Nc3ccc(Br)cc3Cl)c(C(=O)NOCCO)cc21 [selumetinib]	-2	-4.4	52	-2.15	3.45	-4.36	-11	6
Cc1cc(Nc2ncnc3ccc(NC4=NC(C)(C)CO4)cc23)ccc1Oc1ccn2ncnc2c1 [tucatinib]	-2.25	-0.547	48	1.53	2.39	-5.47	-0.473	6.61
C=CC(=O)N1CCC([C@@H]2CCNc3c(C(N)=O)c(-c4ccc(Oc5ccccc5)cc4)nn32)CC1 [zanubrutinib]	-4	-5	22	-1.15	1	-0.157	-7.42	0.524
